Measurements as given in patent US12318386B2, “Combination of XPO1 inhibitors and second agents for the treatment of prostate cancer” (Karyopharm Therapeutics Inc., priority 2018, dated 2025).

Assays:
AR [1] = test: AR mRNA expression by real-time RT-qPCR in 22Rv1 cells; assay type: cell-based; conditions: 200 nM, 48 hours, vs control before treatment
Experimental: (§1) Prostate cancer cell line 22Rv1 was treated with KPT-8602 and the effect of the treatment on the expression of AR and AR splice variant AR-v7 was determined. 22Rv1 cells were treated with 200 nM KPT-8602 for 48 hours and the mRNA expression levels of AR and AR-v7 before (control) and after treatment were measured by real-time RT-qPCR using High Capacity cDNA Reverse Transcription Kit and SYBR Green Master Mixture from Applied Biosystems (Waltham, MA).

ARv = test: Western blot of ARv protein levels; assay type: cell-based; conditions: 22Rv1 cells, 250 nM, 72 hours
Experimental: (§2) Total proteins were subjected to 10 or 14% SDS-PAGE, and electrophoretically transferred to nitrocellulose membrane. The membranes were incubated with specific primary antibodies, and subsequently incubated with secondary antibody conjugated with peroxidase (Bio-rad, Hercules, CA). The signal was detected using the chemiluminescent detection system (PIERCE).

[2] = test system: xenograft samples derived from 22Rv1 cells; test: Immunohistochemistry of 22Rv1 xenograft samples; assay type: in vivo, mice
Excerpt: Increased nuclear staining of tumor suppressor proteins Rb, p21, p53, APC and SMAD4 were also observed in samples treated with KPT-8602.
A tissue microarray (TMA) was constructed with tumor samples collected from 22Rv1 mouse prostate cancer cell. Paraffin sections of the TMA were processed ans stained with antibodies using a Biogenex 16000 automated stainer. Digital images of the slides were obtained through an Aperio AT Turbo scanner 20×. The following antibodies were used for immunohistochemistry staining: Cleaved Caspase 3 (Cell Singaling Technology, 9661), p21 (Cell Signaling Technology, 2947), APC (Abcam, ab15270), Ki67 (Cell Marque, 275R-18), Rb (Abcam, ab181616, p53 (Santa Cruz, sc-126), and SMAD4 (Santa Cruz, sc-7966).

AR [3] = test: Western blot of AR protein levels; assay type: cell-based; conditions: 22Rv1 cells, 250 nM, 72 hours
Experimental: as §2

[4] = test system: Relapsed/Refractory Metastatic Castration Resistant Prostate Cancer (mCRPC); test: Clinical trial in relapsed/refractory mCRPC, KPT-8602 alone and with abiraterone; assay type: in vivo, human
Experimental: • 1. Histologically confirmed adenocarcinoma of the prostate with archival tumor tissue available for molecular analyses. • 2. Surgically or medically castrated, with testosterone levels of <50 ng/dL (<2.0 nM). • 3. Documented mCRPC progression as assessed by the Investigator with one of the following: • a. Prostate specific antigen (PSA) progression defined by a minimum of 3 rising PSA levels (at approximately Day −30 and approximately Day −45) with an interval of >1 week between each determination. The PSA values at the Screening visit should be >2 μg/L (>2 ng/mL); patients on systemic glucocorticoids for control of symptoms must have documented PSA progression by Prostate Cancer Working Group 3 (PCWG3) while on systemic glucocorticoids prior to commencing C1D1 of treatment. • b. Radiographic progression of soft tissue disease by modified RECIST criteria 1.1 or of bone metastasis with 2 or more documented new bone lesions on a bone scan with or without PSA progression. • 4. Initial response (per modified PCWG3 Guidelines) to second generation anti-hormonal therapy (examples: abiraterone, enzalutamide, TAK 700), but later relapsed. Disease relapse would be defined as progressive disease at the time of entry per inclusion criterion 3. • 5. Zero to 2 previous taxane-based chemotherapy regimens. • 6. At least 2 weeks from completion of any radiotherapy including a single fraction of radiotherapy for the purposes of palliation (confined to one field) is permitted. • 7. Patients should not be transfusion dependent. • 8. Albumin>2.5 g/dL. • 9. Adequate hematopoietic function: ANC≥1000/mm^3, hemoglobin (Hb)≥9.0 g/dL, and platelet count≥100,000/mm^3. • 10. Eastern Cooperative Oncology Group (ECOG) performance status of ≤1. • 11. Life expectancy of ≥4 months. Additional Criteria for Combination Therapy Patients (KPT-8602 and Abiraterone) • 12. Patients currently receiving treatment with abiraterone and appropriate to continue in the opinion of the Investigator (some patients may be progressing). Patients must also have been on and continue on a stable dose of corticosteroids (prednisone or dexamethasone) for 30 days prior to C1D1. B. Patient Characteristics and Demographics
Patients treated with KPT-8602 alone received oral KPT-8602 for 5 days per week (QDx5) at dose levels of 20 and 30 mg. Patients treated with KPT-8602 and abiraterone received oral KPT-8602 for 5 days per week (QDx5) at dose levels of 20 and 30 mg and the dose and schedule of abiraterone and corticosteroids that they were receiving at the time of enrollment. For example, a typical dose of ZYTIGA (abiraterone acetate) is 1000 mg orally once daily with prednisone 5 mg orally twice daily. A full cycle was 28 days long. A representative cycle of KPT-8602 dosing is oral administration 5 out of 7 consecutive days in a week for a 28-day cycle (e.g., Days 1-5, 8-12, 15-19 and 22-26 of each 28-day cycle).
Responses were assessed using RECIST v 1.1 criteria once every 28-day cycle. PR: Partial Response, SD: Stable Disease, PD: Progressive Disease, DCR: Disease Control Rate. 7 Non-evaluable patients: 2AE, 2 patient decision, 2 physician decision, 1 patient non-compliant.
All patients had their disease assessed per modified PCWG3 Guidelines including RECIST v1.1 (see below) by the following tests at pre-determined the time points. • PSA: Disease specific clinical lab assessment • Testosterone: Disease specific clinical lab assessment • Bone scan and CT (or MRI) scan of the abdomen and pelvis (RECIST v.1.1): Patients will receive a bone scan to monitor and assess bone disease progression and CT (or MRI) of the abdomen and pelvis (and chest, if indicated) to monitor and assess soft tissue disease progression per PCWG3 including RECIST v.1.1. […]

[5] = test system: 22Rv1 prostate cancer xenograft; test: 22Rv1 prostate cancer xenograft model in CB.17 SCID mice; assay type: in vivo; conditions: 15 mg/kg, QDx5/week
Experimental: The effect of KPT-8602 (15 mg/kg, QDx5/week) in a 22Rv1 prostate cancer xenograft model in CB.17 SCID mice was evaluated. Mouse weights and tumor size were monitored three times a week. Each mouse was euthanized at the end of study (Day 35) or when tumor volume reached 1000 mm^3, whichever comes first.

AR-v7 = AR-v7 mRNA expression by real-time RT-qPCR in 22Rv1 cells; assay type: cell-based; conditions: 200 nM, 48 hours, vs control before treatment
Experimental: as §1

[6] = RECIST v1.1, evaluable patients, KPT-8602 20 and 30 mg QDx5

NC(=O)/C(=C/n1cnc(-c2cc(C(F)(F)F)cc(C(F)(F)F)c2)n1)c1cncnc1 [KPT-8602]
mRNA expression of AR (AR [1]): significantly inhibited
protein levels of ARv (ARv): significantly decreased
nuclear staining of tumor suppressor protein APC [2]: Increased
nuclear staining of tumor suppressor protein Rb [2]: Increased
nuclear staining of tumor suppressor protein SMAD4 [2]: Increased
nuclear staining of tumor suppressor protein p21 [2]: Increased
nuclear staining of tumor suppressor protein p53 [2]: Increased
apoptotic molecule (Cleaved Caspase 3) ([2]; compared to vehicle controls): increased
cell proliferation marker (Ki67) ([2]; compared to vehicle controls): decreased
protein levels of AR (AR [3]): significantly decreased
median PFS ([4]; Kaplan-Meier analysis, evaluable patients): 5.9 months
DCR (PR + SD) SD ≥ 8 weeks, % of patients [4, 6]: 82%
DCR (PR + SD) SD ≥ 8 weeks, number of patients [4, 6]: 9
DCR (PR + SD) SD ≥ 16 weeks, % of patients [4, 6]: 55%
DCR (PR + SD) SD ≥ 16 weeks, number of patients [4, 6]: 6
PD (Progressive Disease), % of patients [4, 6]: (18%)
PD (Progressive Disease), number of patients [4, 6]: 2
PR (Partial Response), % of patients [4, 6]: (9%)
PR (Partial Response), number of patients [4, 6]: 1
Median ToT (Time on Treatment) ([4]; evaluable patients, 20 mg KPT-8602): 96 days
Median ToT (Time on Treatment) ([4]; evaluable patients, 30 mg KPT-8602): 134 days
Median ToT (Time on Treatment) ([4]; evaluable patients, all doses (20 and 30 mg KPT-8602)): 96 days
survival [5]: prolongs
tumor growth [5]: significantly inhibits
median OS (overall survival) ([5]; Kaplan-Meier, end of study Day 35, vehicle 20 days): undefined
% TGI (tumor growth inhibition) on Day 16 ([5]; compared to vehicle): 87%
mRNA expression of AR-v7 (AR-v7): significantly inhibited
